Data published in patent US20220040263A1, “COMPANION DIAGNOSTIC FOR COMBINATION LENALIDOMIDE AND ERYTHROPOIETIN TREATMENT” (H. Lee Moffitt Cancer Center and Research Institute, Inc., priority 2016, published 2022).
Entries after “also recorded” stand apart in the source; their conditions may differ.

Experiments:
[1] = tested on: Jak2 and STAT5 phosphorylation in UT7 cells; experiment: Jak2 and STAT5 phosphorylation in UT7 cells with JAK or Src kinase inhibitors (Western); assay type: cell-based
Experimental: 10×10^7 UT7 cells were serum starved then treated with SKI 606 or AG490 for 30 minutes, CC5013 for 2 hours, and stimulated with EPO (1 U/ml) for 10 minutes at 37° C. Cells were lysed and […] run on a 4-15% Gradient gel (Bio-rad). Antibodies included p-STAT5 (Upstate, 1:1000 in 5% TBS/milk), total STAT5 (Cell Signaling, 1:10000 in 5% TBS/milk), and p-Jak2 (Santa Cruz, 1:500 in 5% TBS/milk). Blots were developed with an ECL detection kit (Amersham).
To further evaluate the mechanism by which lenalidomide enhances the EPO-R signal, STAT5 activation was assessed in response to EPO+lenalidomide treatment using selective pharmacologic inhibitors of JAK (AG490) or Src ([…]) kinases [FIG. 4].

rhu-CD45 = molecular target: T1, rhu-CD45 (Homo sapiens, UniProt P08575); experiment: BIOMOL Green CD45 Tyrosine Phosphatase Assay; assay type: biochemical; conditions: 1 μM, recombinant CD45, substrate pp60c-Src
T1 construct: purchased Calbiochem
T1 sequence (P08575 26-1306): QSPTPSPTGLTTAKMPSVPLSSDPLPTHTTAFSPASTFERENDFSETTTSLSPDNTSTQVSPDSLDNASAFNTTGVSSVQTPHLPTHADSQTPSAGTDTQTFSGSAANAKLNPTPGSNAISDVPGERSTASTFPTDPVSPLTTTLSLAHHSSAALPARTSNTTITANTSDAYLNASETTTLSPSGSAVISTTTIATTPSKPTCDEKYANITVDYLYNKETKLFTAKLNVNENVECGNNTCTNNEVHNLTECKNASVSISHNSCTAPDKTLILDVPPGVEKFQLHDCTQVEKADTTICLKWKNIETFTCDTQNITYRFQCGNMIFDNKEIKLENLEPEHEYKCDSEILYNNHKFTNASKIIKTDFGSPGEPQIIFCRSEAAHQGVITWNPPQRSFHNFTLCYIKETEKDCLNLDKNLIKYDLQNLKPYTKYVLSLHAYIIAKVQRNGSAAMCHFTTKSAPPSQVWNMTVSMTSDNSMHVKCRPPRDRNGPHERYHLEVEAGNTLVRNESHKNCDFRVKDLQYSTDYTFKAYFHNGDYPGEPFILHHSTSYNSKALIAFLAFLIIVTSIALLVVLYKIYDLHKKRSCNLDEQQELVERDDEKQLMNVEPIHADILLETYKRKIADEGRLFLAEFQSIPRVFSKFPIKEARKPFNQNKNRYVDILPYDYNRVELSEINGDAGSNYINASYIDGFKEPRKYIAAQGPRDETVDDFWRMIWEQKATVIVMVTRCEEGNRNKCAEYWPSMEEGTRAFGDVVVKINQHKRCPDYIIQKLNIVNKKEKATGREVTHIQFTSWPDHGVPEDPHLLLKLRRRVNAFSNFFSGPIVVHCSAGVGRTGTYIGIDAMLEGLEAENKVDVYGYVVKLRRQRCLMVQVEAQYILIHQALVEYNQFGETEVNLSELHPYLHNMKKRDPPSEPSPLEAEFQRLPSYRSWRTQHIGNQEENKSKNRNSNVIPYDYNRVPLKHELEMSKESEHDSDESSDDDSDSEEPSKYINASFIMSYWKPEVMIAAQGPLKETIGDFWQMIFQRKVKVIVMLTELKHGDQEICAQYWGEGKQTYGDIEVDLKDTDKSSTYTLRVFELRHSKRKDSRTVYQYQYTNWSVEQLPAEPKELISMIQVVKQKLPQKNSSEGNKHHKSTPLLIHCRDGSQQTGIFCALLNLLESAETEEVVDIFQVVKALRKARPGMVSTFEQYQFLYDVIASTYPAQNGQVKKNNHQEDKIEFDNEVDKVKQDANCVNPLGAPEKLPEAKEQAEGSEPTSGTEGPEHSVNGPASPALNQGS
Experimental: CD45-specific PTP activity was assayed as outlined in the BIOMOL Green™ CD45 Tyrosine Phosphatase Assay Kit. Briefly, 75 U of rhu-CD45 (Calbiochem) was incubated for 1H at 37° C. with the indicated inhibitors (1 μM CC5013 and thalidomide, 100 μM Na Orthovanadate, and 50 μM RWJ-60475 (CD45-specific PTP inhibitor) in 1× assay buffer. The substrate pp60c-Src was added at 200 μM and incubated for 1H at 37° C. Samples were read on a plate reader at 620 nm. Percent PTP activity was calculated according to the equation (OD of test sample/OD of control)×100.
This notion is in agreement with findings that lenalidomide suppressed cytosolic release of Csk that is dependent upon dephosphorylation of the Cbp/PAG Csk docking site (Tyr314) by CD45. To determine if lenalidomide inhibits CD45 phosphatase, recombinant CD45 PTP inhibition by lenalidomide and thalidomide was compared to the pan-PTP inhibitor sodium orthovanadate and the CD45-selective inhibitor, RWJ-60475 using the Biomol CD45 phosphatase assay. […] [FIG. 7].

AML-EH5q cells = experiment: Apoptosis by Annexin-V/PI flow cytometry in AML-EH5q cells; assay type: cell-based; conditions: AML-EH5q (5q-deleted) cells, 24 hours
Experimental: (§1) AML-EH5q (FIG. 8A) and U937 (FIG. 8B) cells were exposed to lenalidomide, thalidomide or vehicle at the concentrations indicated for 24 hours in IMDM and 20% FBS and apoptosis assessed by flow cytometry using Annexin-V/PI staining. Briefly, cells are incubated for 20 minutes at room temperature in 50 mM HEPES (pH 7.4) and 150 mM NaCl containing 2 mM calcium chloride with a mixture of 1 μg/mLAnnexin V-FITC (Boehringer Mannhein, Mannhein, Germany) and 2.5 μg/mL propidium iodide (PI; Sigma-Aldrich) before analysis.
(§2) The hematologic effects of lenalidomide could derive from dual effects that are karyotype-dependent, i.e., (1) the potentiation of erythropoiesis in non-del5q erythroid precursors, and (2) selective suppression of del5q clones. To confirm that lenalidomide is selectively cytotoxic to del-5q clones, an AML cell line transformed from an MDS patient with isolated 5q31 deletion was cultivated and the cell line successfully maintained in suspension culture with recombinant myeloid growth factor supplementation. This cell line [designated AML-EH5q] is an AML cell line that harbors the isolated 5q-deletion. […] To evaluate the selectivity of lenalidomide cytotoxic for del5q clones, apoptotic response to lenalidomide and thalidomide was compared in AML-EH5q and U937 (non-del5q) cells by flow cytometry. […] Viability was unaffected at all concentrations for both agents in U937 cells.

U937 (non-del5q) cells = experiment: Apoptosis by Annexin-V/PI flow cytometry in U937 cells; assay type: cell-based; conditions: 24 hours, all concentrations
Experimental: as §1, §2

Row | inhibition of CD45 PTP activity (rhu-CD45) | SMILES | effect of kinase inhibitor on lenalidomide's potentiation of EPO-induced STAT5 phosphorylation [1] | effect of kinase inhibitor on lenalidomide-augmented EPO-induced Jak2-phosphorylation ([1]; inhibitor 30 minutes, CC5013 2 hours, EPO 1 U/ml 10 minutes) | induction of programmed cell death (apoptosis) (AML-EH5q cells) | viability / apoptosis (U937 (non-del5q) cells)
1 |  | N#C/C(=C/c1ccc(O)c(O)c1)C(=O)NCc1ccccc1 [AG490] | suppress | abrogated |  | 
2 |  | COc1cc(Nc2c(C#N)cnc3cc(OCCCN4CCN(C)CC4)c(OC)cc23)c(Cl)cc1Cl [SKI-606] | suppress |  |  | 
3 | minimal inhibition | O=C1CCC(N2C(=O)c3ccccc3C2=O)C(=O)N1 (stereo not drawn) [thalidomide] |  |  | comparatively inactive | comparatively inactive; also recorded: unaffected
